Data reported in US6274715A, “Tricyclic erythromycin derivatives” (priority 1997, dated 2001).
Converted amounts (≈) assume the structure as drawn.

Experiments:
Type in all cases: cell-based
[1] = system: PSEUDOMONAS AERUGINOSA DPHD-2862; experiment: In vitro antibacterial activity, MIC, BHI agar dilution; conditions: P. aeruginosa DPHD-2862, unit assumed
CANDIDA ALBICANS CCH 442 = experiment: as above; conditions: C. albicans CCH 442, unit assumed
[2] = system: PROVIDENCIA STUARTII CMX 640; conditions: P. stuartii CMX 640; BHI agar; unit assumed
ESCHERICHIA COLI H560 = experiment: In vitro antibacterial activity, MIC, BHI agar dilution; conditions: E. coli H560, unit assumed
[3] = system: STAPHYLOCOCCUS AUREUS 1775; experiment: as above; conditions: S. aureus 1775, unit assumed
[4] = system: STREPTOCOCCUS PYOGENES PIU 2548; experiment: as above; conditions: S. pyogenes PIU 2548, unit assumed
[5] = system: STAPHYLOCOCCUS AUREUS A-5278; experiment: as above; conditions: S. aureus A-5278, unit assumed
ESCHERICHIA COLI KNK 437 = conditions: E. coli KNK 437; BHI agar; unit assumed
[6] = system: PSEUDOMONAS AERUGINOSA 5007; experiment: In vitro antibacterial activity, MIC, BHI agar dilution; conditions: P. aeruginosa 5007, unit assumed
[7] = system: STAPHYLOCOCCUS AUREUS NCTC10649M; experiment: as above; conditions: S. aureus NCTC10649M, unit assumed
[8] = system: ENTEROBACTER AEROGENES ATCC 13048; experiment: as above; conditions: E. aerogenes ATCC 13048, unit assumed
[9] = system: MYCOBACTERIUM SMEGMATIS ATCC 114; experiment: as above; conditions: M. smegmatis ATCC 114, unit assumed
[10] = system: ACINETOBACTER CALCOACETICUS CMX 669; experiment: as above; conditions: A. calcoaceticus CMX 669, unit assumed
ESCHERICHIA COLI DC-2 = experiment: as above; conditions: E. coli DC-2, unit assumed
[11] = system: KLEBSIELLA PNEUMONIAE ATCC 8045; experiment: as above; conditions: K. pneumoniae ATCC 8045, unit assumed
[12] = system: PSEUDOMONAS AERUGINOSA BMH10; experiment: as above; conditions: P. aeruginosa BMH10, unit assumed
[13] = system: STAPHYLOCOCCUS AUREUS ATCC 6538P; experiment: as above; conditions: S. aureus ATCC 6538P, 35-37° C., 20 to 24 hours, unit assumed
[14] = system: STAPHYLOCOCCUS AUREUS A5177; experiment: as above; conditions: S. aureus A5177, unit assumed
[15] = system: PSEUDOMONAS AERUGINOSA K799/61; experiment: as above; conditions: P. aeruginosa K799/61, unit assumed
[16] = system: PSEUDOMONAS AERUGINOSA DPHD-5263; experiment: as above; conditions: P. aeruginosa DPHD-5263, unit assumed
ESCHERICHIA COLI SS = experiment: as above; conditions: E. coli SS, unit assumed
[17] = system: STAPHYLOCOCCUS AUREUS CMX 642A; experiment: as above; conditions: S. aureus CMX 642A, unit assumed
M[…] ATCC 9341 = experiment: as above; conditions: M. luteus ATCC 9341, unit assumed
Summary of the method: (§1)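 BHI agar dilution: twelve plates with successive compound dilutions, inoculated by replicator with 1:100 culture dilutions (1:10 for slow growers such as Micrococcus and Streptococcus), 20 to 24 hours at 35-37° C. MIC was the lowest concentration giving no growth, slight haze or sparse isolated colonies versus drug-free control; erythromycin A as class reference.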

STR[…] 508 = experiment: as above; conditions: S. agalactiae CMX 508, unit assumed
Summary of the method: as §1

EN[…] ATCC 8043 = experiment: as above; conditions: E. faecium ATCC 8043, unit assumed
Summary of the method: as §1

M[…] ATCC 4698 = experiment: as above; conditions: M. luteus ATCC 4698, unit assumed
Summary of the method: as §1

PSEUDOMONAS CEPACIA 296I = experiment: as above; conditions: P. cepacia 296I, unit assumed
ESCHERICHIA COLI JUHL = conditions: E. coli JUHL; BHI agar; unit assumed
[18] = system: STREPTOCOCCUS PYOGENES 930; experiment: In vitro antibacterial activity, MIC, BHI agar dilution; conditions: S. pyogenes 930, unit assumed
[19] = system: STAPHYLOCOCCUS AUREUS CMX 553; experiment: as above; conditions: S. aureus CMX 553, unit assumed
[20] = system: STREPTOCOCCUS BOVIS A-5169; experiment: as above; conditions: S. bovis A-5169, unit assumed
[21] = system: STREPTOCOCCUS PYOGENES EES61; experiment: as above; conditions: S. pyogenes EES61, unit assumed
[22] = system: PSEUDOMONAS AERUGINOSA K799/WT; experiment: as above; conditions: P. aeruginosa K799/WT, unit assumed
[23] = system: STAPHYLOCOCCUS EPIDERMIDIS 3519; conditions: S. epidermidis 3519; BHI agar; unit assumed

CC[C@H]1OC(=O)[C@H](C)C(=O)[C@H](C)[C@@H](O[C@@H]2O[C@H](C)C[C@H](N(C)C)[C@H]2O)[C@](C)(OC)C[C@@H](C)C2=N[C@H](COCc3ccccc3Br)CN3C(=O)O[C@@]1(C)[C@H]3[C@H]2C [Example 104]
MIC [1]: > 100 µg/mL | MIC (CANDIDA ALBICANS CCH 442): 100 µg/mL (≈ 119 µM) | MIC [2]: > 100 µg/mL | MIC (ESCHERICHIA COLI H560): 50 µg/mL (≈ 59.7 µM) | MIC [3]: 100 µg/mL (≈ 119 µM) | MIC [4]: 0.05 µg/mL (≈ 0.0597 µM) | MIC [5]: 100 µg/mL (≈ 119 µM) | MIC (ESCHERICHIA COLI KNK 437): > 100 µg/mL | MIC [6]: > 100 µg/mL | MIC [7]: 0.05 µg/mL (≈ 0.0597 µM) | MIC [8]: > 100 µg/mL | MIC [9]: 0.39 µg/mL (≈ 0.466 µM) | MIC [10]: 100 µg/mL (≈ 119 µM) | MIC (ESCHERICHIA COLI DC-2): 100 µg/mL (≈ 119 µM) | MIC [11]: > 100 µg/mL | MIC [12]: > 100 µg/mL | MIC [13]: 0.05 µg/mL (≈ 0.0597 µM) | MIC [14]: 0.05 µg/mL (≈ 0.0597 µM) | MIC [15]: 3.1 µg/mL (≈ 3.7 µM) | MIC [16]: > 100 µg/mL | MIC (ESCHERICHIA COLI SS): 0.78 µg/mL (≈ 0.932 µM) | MIC [17]: 0.05 µg/mL (≈ 0.0597 µM) | MIC (M[…] ATCC 9341): 0.02 µg/mL (≈ 0.0239 µM) | MIC (STR[…] 508): 0.01 µg/mL (≈ 0.0119 µM) | MIC (EN[…] ATCC 8043): 0.01 µg/mL (≈ 0.0119 µM) | MIC (M[…] ATCC 4698): 0.1 µg/mL (≈ 0.119 µM) | MIC (PSEUDOMONAS CEPACIA 296I): 100 µg/mL (≈ 119 µM) | MIC (ESCHERICHIA COLI JUHL): 100 µg/mL (≈ 119 µM) | MIC [18]: 25 µg/mL (≈ 29.9 µM) | MIC [19]: 0.05 µg/mL (≈ 0.0597 µM) | MIC [20]: 0.01 µg/mL (≈ 0.0119 µM) | MIC [21]: 0.01 µg/mL (≈ 0.0119 µM) | MIC [22]: > 100 µg/mL | MIC [23]: 0.05 µg/mL (≈ 0.0597 µM)

CC[C@H]1OC(=O)[C@H](C)C(=O)[C@H](C)[C@@H](O[C@@H]2O[C@H](C)C[C@H](N(C)C)[C@H]2O)[C@](C)(OC)C[C@@H](C)C2=N[C@H](COCc3cccc(Br)c3)CN3C(=O)O[C@@]1(C)[C@H]3[C@H]2C [Example 105]
MIC [1]: > 100 µg/mL | MIC (CANDIDA ALBICANS CCH 442): 100 µg/mL (≈ 119 µM) | MIC [2]: > 100 µg/mL | MIC (ESCHERICHIA COLI H560): 50 µg/mL (≈ 59.7 µM) | MIC [3]: 100 µg/mL (≈ 119 µM) | MIC [4]: 0.05 µg/mL (≈ 0.0597 µM) | MIC [5]: 100 µg/mL (≈ 119 µM) | MIC (ESCHERICHIA COLI KNK 437): > 100 µg/mL | MIC [6]: > 100 µg/mL | MIC [7]: 0.02 µg/mL (≈ 0.0239 µM) | MIC [8]: > 100 µg/mL | MIC [9]: 0.78 µg/mL (≈ 0.932 µM) | MIC [10]: 100 µg/mL (≈ 119 µM) | MIC (ESCHERICHIA COLI DC-2): 100 µg/mL (≈ 119 µM) | MIC [11]: > 100 µg/mL | MIC [12]: > 100 µg/mL | MIC [13]: 0.05 µg/mL (≈ 0.0597 µM) | MIC [14]: 0.05 µg/mL (≈ 0.0597 µM) | MIC [15]: 1.56 µg/mL (≈ 1.86 µM) | MIC [16]: > 100 µg/mL | MIC (ESCHERICHIA COLI SS): 0.39 µg/mL (≈ 0.466 µM) | MIC [17]: 0.05 µg/mL (≈ 0.0597 µM) | MIC (M[…] ATCC 9341): ≤ 0.005 µg/mL | MIC (STR[…] 508): ≤ 0.005 µg/mL | MIC (EN[…] ATCC 8043): ≤ 0.005 µg/mL | MIC (M[…] ATCC 4698): 0.01 µg/mL (≈ 0.0119 µM) | MIC (PSEUDOMONAS CEPACIA 296I): 100 µg/mL (≈ 119 µM) | MIC (ESCHERICHIA COLI JUHL): 100 µg/mL (≈ 119 µM) | MIC [18]: 25 µg/mL (≈ 29.9 µM) | MIC [19]: 0.05 µg/mL (≈ 0.0597 µM) | MIC [20]: ≤ 0.005 µg/mL | MIC [21]: ≤ 0.005 µg/mL | MIC [22]: > 100 µg/mL | MIC [23]: 0.05 µg/mL (≈ 0.0597 µM)

CC[C@H]1OC(=O)[C@H](C)C(=O)[C@H](C)[C@@H](O[C@@H]2O[C@H](C)C[C@H](N(C)C)[C@H]2O)[C@](C)(OC)C[C@@H](C)C2=NC3CN(CCc4ccccc4[N+](=O)[O-])CC3N3C(=O)O[C@@]1(C)[C@H]3[C@H]2C (stereo partly drawn) [Example 119]
MIC [1]: > 100 µg/mL | MIC (CANDIDA ALBICANS CCH 442): > 100 µg/mL | MIC [2]: > 100 µg/mL | MIC (ESCHERICHIA COLI H560): > 100 µg/mL | MIC [3]: > 100 µg/mL | MIC [4]: 0.78 µg/mL (≈ 0.942 µM) | MIC [5]: > 100 µg/mL | MIC (ESCHERICHIA COLI KNK 437): > 100 µg/mL | MIC [6]: > 100 µg/mL | MIC [7]: 0.2 µg/mL (≈ 0.242 µM) | MIC [8]: > 100 µg/mL | MIC [9]: 0.78 µg/mL (≈ 0.942 µM) | MIC [10]: 100 µg/mL (≈ 121 µM) | MIC (ESCHERICHIA COLI DC-2): > 100 µg/mL | MIC [11]: > 100 µg/mL | MIC [12]: > 100 µg/mL | MIC [13]: 0.39 µg/mL (≈ 0.471 µM) | MIC [14]: 0.39 µg/mL (≈ 0.471 µM) | MIC [15]: 0.78 µg/mL (≈ 0.942 µM) | MIC [16]: > 100 µg/mL | MIC (ESCHERICHIA COLI SS): 0.78 µg/mL (≈ 0.942 µM) | MIC [17]: 0.39 µg/mL (≈ 0.471 µM) | MIC (M[…] ATCC 9341): 0.05 µg/mL (≈ 0.0604 µM) | MIC (STR[…] 508): 0.02 µg/mL (≈ 0.0242 µM) | MIC (EN[…] ATCC 8043): 0.1 µg/mL (≈ 0.121 µM) | MIC (M[…] ATCC 4698): 0.39 µg/mL (≈ 0.471 µM) | MIC (PSEUDOMONAS CEPACIA 296I): > 100 µg/mL | MIC (ESCHERICHIA COLI JUHL): 100 µg/mL (≈ 121 µM) | MIC [18]: > 100 µg/mL | MIC [19]: 0.2 µg/mL (≈ 0.242 µM) | MIC [20]: 0.02 µg/mL (≈ 0.0242 µM) | MIC [21]: 0.02 µg/mL (≈ 0.0242 µM) | MIC [22]: > 100 µg/mL | MIC [23]: 0.39 µg/mL (≈ 0.471 µM)
